Source: publication PMC7949049 (The Journal of Biological Chemistry, 2020)
Entries after “also recorded” stand apart in the source; their conditions may differ. Positions of bridges follow the written chain, without caps; N, C: chain ends. Non-standard residues stand in square brackets, D forms with d. Residues, ends and D or L forms follow the SMILES beside them. *: point of attachment. 5FAM = O=C1OC2(c3ccc(O)cc3Oc3cc(O)ccc32)c2ccc(C(=O)*)cc21; S5 = C=CCCC[C@](C)(N)C(=O)O

How the values were obtained:
[1] = Solubility in aqueous solution (observation); assay type: physicochemical; details: qualitative
RhoA·GMPPNP = target: T1, RhoA·GMPPNP (Homo sapiens, UniProt P61586, F25N/Q63L); assay: Direct-binding fluorescence polarization, RhoA; details: 20 nM FAM-labelled non-solubilized peptide; n ≥ 2; ± standard error from curve fitting; read-out: Kd RhoA, FP (Table S1)
T1 construct: RhoA (pGEX-2T, 1–186, F25N/Q63L); GST (cleaved yes); made in house
T1 sequence (P61586 1-186 F25N/Q63L): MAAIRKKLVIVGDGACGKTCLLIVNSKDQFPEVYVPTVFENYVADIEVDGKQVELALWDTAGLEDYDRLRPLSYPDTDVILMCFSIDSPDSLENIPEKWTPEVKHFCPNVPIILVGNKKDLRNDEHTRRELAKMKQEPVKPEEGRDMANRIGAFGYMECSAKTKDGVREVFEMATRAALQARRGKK
Method: (§1) FP experiments were performed on a BMG Labtech Pherastar fluorimeter at 298 K with excitation at 485 nm and emission at 520 nm as described previously ([34]), using 20 nM FAM-labeled peptide. Plates were read after 30 min incubation at room temperature. Data were fitted to a single-site binding model using nonlinear regression analysis in GraphPad prism 8.4 to obtain Kd values and their standard errors.

cells = details: confocal microscopy of FAM-labeled peptide; cited from earlier work
Excerpt: It has been shown previously that stapled peptides need to form an amphipathic helix in order to enter cells ([52]), and the amphipathicity of our peptide was disrupted by the inclusion of the so ...

Cdc42 = target: T2, Cdc42 (Homo sapiens, UniProt P60953, Q61L); assay: Direct-binding fluorescence polarization, Cdc42; details: 20 nM FAM-labelled non-solubilized peptide; n ≥ 2; ± standard error from curve fitting; read-out: Kd Cdc42, FP (Table S1)
T2 construct: Cdc42 (pGEX-2T, 1–184, Q61L); GST (cleaved yes); made in house
T2 sequence (P60953 1-184 Q61L, species assumed): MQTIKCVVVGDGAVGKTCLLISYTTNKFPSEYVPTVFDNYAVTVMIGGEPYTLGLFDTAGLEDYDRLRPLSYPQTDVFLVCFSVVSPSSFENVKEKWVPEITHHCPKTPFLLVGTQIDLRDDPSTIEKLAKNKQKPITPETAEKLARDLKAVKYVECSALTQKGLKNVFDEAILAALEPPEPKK
Method: as §1

[2] = Circular dichroism, helicity; assay type: physicochemical; details: CD 185-260 nm, 0.2 mg/ml peptide in water, 298 K; CDSSTR method, reference set 3, Dichroweb
Method: CD spectra were recorded at 1 nm intervals between 260 and 185 nm using an Aviv Model 410 CD spectrometer with a 1 mm path length quartz cuvette at 298 K. Three scans were recorded for each peptide or protein, the data were averaged, and the buffer background was subtracted. RLIP76 RBDs were measured at 0.2 mg/ml in 10 mM phosphate buffer, pH 7.3, and 150 mM NaF, while peptides were measured at 0.2 mg/ml in water. The helical content of each peptide and RBD was determined using the CDSSTR method with reference Set 3 and DichroWeb ([59], [60], [61]).

Row | Kd (RhoA·GMPPNP) [µM] | Kd (Cdc42) [µM] | Helicity (%) of peptides [2] [%] | Compound | solubility [1] | cell entry (previous work) (cells)
1 | 0.0338 ± 0.0054 | 13 ± 7.4 | – | CC[C@H](C)[C@H](NC(=O)[C@H](CCCNC(=N)N)NC(=O)[C@H](CCC(N)=O)NC(=O)[C@@H](NC(=O)[C@H](CCC(=O)O)NC(=O)[C@H](Cc1c[nH]c2ccccc12)NC(=O)[C@H](CC(C)C)NC(=O)[C@]1(C)CCCC=CCCC[C@](C)(NC(=O)[C@H](CC(C)C)NC(=O)c2ccc3c(c2)C(=O)OC32c3ccc(O)cc3Oc3cc(O)ccc32)C(=O)N[C@@H](CCCCN)C(=O)N[C@@H](CCC(=O)O)C(=O)N[C@@H](CCC(=O)O)C(=O)N1)C(C)C)C(=O)N[C@@H](CC(C)C)C(=O)N[C@H](C(=O)N[C@@H](C)C(=O)N[C@@H](CC(C)C)C(=O)N[C@@H](CCCCN)C(=O)N[C@@H](CCCNC(=N)N)C(=O)N[C@@H](CCCCN)C(=O)N[C@@H](CC(C)C)C(=O)N[C@@H](CCCNC(=N)N)C(=O)N[C@@H](CCC(=O)O)C(=O)N[C@@H](C)C(N)=O)[C@@H](C)O [SP1] (5FAM-L[S5]KEE[S5]LWEVQRILTALKRKLREA-NH2; staple 2-6) | poor solubility; also recorded: poorly soluble | able to enter cells
2 | – | – | 46 | CC[C@H](C)[C@H](NC(=O)[C@H](CCCNC(=N)N)NC(=O)[C@H](CCC(N)=O)NC(=O)[C@H](CCC(=O)O)NC(=O)[C@H](CCC(=O)O)NC(=O)[C@H](Cc1c[nH]c2ccccc12)NC(=O)[C@H](CC(C)C)NC(=O)[C@]1(C)CCCC=CCCC[C@](C)(NC(=O)[C@@H](N)CC(C)C)C(=O)N[C@@H](CCCCN)C(=O)N[C@@H](CCC(=O)O)C(=O)N[C@@H](CCC(=O)O)C(=O)N1)C(=O)N[C@@H](CCCCN)C(=O)N[C@H](C(=O)N[C@@H](C)C(=O)N[C@@H](CCC(=O)O)C(=O)N[C@@H](CCCCN)C(=O)N[C@@H](CCCNC(=N)N)C(=O)N[C@@H](CCCCN)C(=O)N[C@@H](CCCCN)C(=O)N[C@@H](CCCNC(=N)N)C(=O)N[C@@H](CCC(=O)O)C(=O)N[C@@H](C)C(N)=O)[C@@H](C)O [wt-sol] (H-L[S5]KEE[S5]LWEEQRIKTAEKRKKREA-NH2; staple 2-6; N-terminus assumed) | – | –
